Measurements from paper PMC12301304 (Frontiers in Pharmacology, 2025).
Where two headings read alike, the source gives them in different places.

Columns and labels:
CYP1a2 = biological target: T1, CYP1a2 (Rattus norvegicus, UniProt P04799); conditions: microsomes
T1 sequence (P04799 1-513): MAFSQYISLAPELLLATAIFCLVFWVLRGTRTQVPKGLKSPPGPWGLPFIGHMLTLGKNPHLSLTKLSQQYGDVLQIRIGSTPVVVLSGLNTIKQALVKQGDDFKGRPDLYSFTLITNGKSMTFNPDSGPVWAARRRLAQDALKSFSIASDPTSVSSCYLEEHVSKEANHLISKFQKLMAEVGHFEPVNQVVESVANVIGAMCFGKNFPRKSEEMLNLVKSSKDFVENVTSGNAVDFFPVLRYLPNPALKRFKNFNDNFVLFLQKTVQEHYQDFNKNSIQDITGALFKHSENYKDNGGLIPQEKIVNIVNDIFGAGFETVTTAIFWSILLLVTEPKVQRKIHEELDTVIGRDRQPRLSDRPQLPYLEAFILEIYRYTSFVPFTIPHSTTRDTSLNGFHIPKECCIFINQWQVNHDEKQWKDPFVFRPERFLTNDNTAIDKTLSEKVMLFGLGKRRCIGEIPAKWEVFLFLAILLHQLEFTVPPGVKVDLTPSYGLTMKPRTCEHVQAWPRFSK
Description: (§1) The effect of the Zhicaowu–Hezi combination on CYP450 enzymes in RLM was evaluated by assessing the metabolic clearance rates of theophylline, metoprolol, bupropion, mephenytoin (CYP2c13), chlorzoxazone, testosterone, and diclofenac.
(§2) On day 15, the rats were humanely euthanized, and liver tissues were excised for microsomal preparation. […] Livers from each group were repeatedly washed with ice-cold phosphate buffered saline (PBS). […] Subsequently, they were blotted dry with filter paper, weighed, and homogenized by adding 4 mL of ice-cold PBS per gram of liver tissue. The mixture was homogenized in an ice bath. The liver homogenate was subjected to centrifugation at 10,000 RPM for 20 min at 4°C. The resulting supernatant was then combined with an ice-cold 88-mmol/L CaCl2 solution at a 1:1 ratio, and the mixture was homogenized in an ice bath for 5 min. The resulting solution was then centrifuged at 25,000 × g for 30 min at 4°C. The supernatant was discarded and the precipitate was repeatedly resuspended in PBS–20% glycerol buffer. The precipitate was then stored in a separate bottle at −80°C for backup. The protein concentration of the prepared RLM was determined using a bicinchoninic acid protein assay kit.
(§3) Preincubation was conducted for 5 min in a water bath at 37°C, after which NADPH (1 mmol/L) was added, and incubation continued for 30 min at 37°C. Once the incubation period elapsed, the reaction was terminated by the addition of an ice-cold IS-containing acetonitrile solution. The samples were vortexed for 2 min and centrifuged at 15,000 RPM for 10 min. The resulting supernatant was filtered through a 0.22-μm organic microporous membrane, and 20 μL of the filtered solution was injected into the HPLC assay. To prevent the organic solvents from inducing or inhibiting the enzyme, the volume fraction of organic solvents in the entire incubation system was maintained at 1%. […] The inhibitor group was added with corresponding inhibitor, while all other procedures remained identical.

CYP2d2 = biological target: T2, CYP2d2 (Rattus norvegicus, UniProt P10634)
T2 sequence (P10634 1-500): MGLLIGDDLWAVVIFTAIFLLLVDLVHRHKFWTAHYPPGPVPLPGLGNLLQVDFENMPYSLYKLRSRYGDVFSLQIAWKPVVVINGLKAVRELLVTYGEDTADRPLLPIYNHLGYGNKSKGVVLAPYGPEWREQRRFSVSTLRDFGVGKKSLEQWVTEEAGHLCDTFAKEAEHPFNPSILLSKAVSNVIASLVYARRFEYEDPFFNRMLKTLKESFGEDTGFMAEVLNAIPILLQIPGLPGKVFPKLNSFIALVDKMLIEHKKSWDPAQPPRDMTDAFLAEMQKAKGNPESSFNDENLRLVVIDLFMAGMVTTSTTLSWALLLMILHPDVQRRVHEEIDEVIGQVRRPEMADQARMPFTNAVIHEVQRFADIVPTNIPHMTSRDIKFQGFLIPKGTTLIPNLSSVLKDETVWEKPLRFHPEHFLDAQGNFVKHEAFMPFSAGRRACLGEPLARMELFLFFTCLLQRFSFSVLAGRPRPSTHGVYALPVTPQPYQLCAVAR
Description: as §1, §2, §3

CYP3a1 = biological target: T3, CYP3a1 (Rattus norvegicus, UniProt P04800)
T3 sequence (P04800 1-504): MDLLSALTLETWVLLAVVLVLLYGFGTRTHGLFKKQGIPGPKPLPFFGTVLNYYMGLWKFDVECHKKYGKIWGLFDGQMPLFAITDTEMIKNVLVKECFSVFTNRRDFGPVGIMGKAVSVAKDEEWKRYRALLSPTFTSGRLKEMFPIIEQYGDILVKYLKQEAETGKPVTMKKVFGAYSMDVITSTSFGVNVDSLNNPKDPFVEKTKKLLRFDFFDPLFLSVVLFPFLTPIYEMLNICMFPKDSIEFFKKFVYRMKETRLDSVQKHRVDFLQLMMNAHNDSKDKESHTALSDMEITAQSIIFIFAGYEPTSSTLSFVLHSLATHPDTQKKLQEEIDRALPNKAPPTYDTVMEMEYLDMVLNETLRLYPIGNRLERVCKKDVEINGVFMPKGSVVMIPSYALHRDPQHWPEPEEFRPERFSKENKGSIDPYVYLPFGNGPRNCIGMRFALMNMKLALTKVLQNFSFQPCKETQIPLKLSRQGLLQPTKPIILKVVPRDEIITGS
Description: as §1, §2, §3

CYP2c13 = biological target: T4, CYP2c13 (Rattus norvegicus, UniProt P20814); assay: RLM incubation: metabolic clearance rate of mephenytoin (CYP2c13); conditions: RLM 0.5 mg/mL, 30 min 37°C, inhibitor added, blank control 15.97 ± 0.68, n = 3
T4 sequence (P20814 1-490): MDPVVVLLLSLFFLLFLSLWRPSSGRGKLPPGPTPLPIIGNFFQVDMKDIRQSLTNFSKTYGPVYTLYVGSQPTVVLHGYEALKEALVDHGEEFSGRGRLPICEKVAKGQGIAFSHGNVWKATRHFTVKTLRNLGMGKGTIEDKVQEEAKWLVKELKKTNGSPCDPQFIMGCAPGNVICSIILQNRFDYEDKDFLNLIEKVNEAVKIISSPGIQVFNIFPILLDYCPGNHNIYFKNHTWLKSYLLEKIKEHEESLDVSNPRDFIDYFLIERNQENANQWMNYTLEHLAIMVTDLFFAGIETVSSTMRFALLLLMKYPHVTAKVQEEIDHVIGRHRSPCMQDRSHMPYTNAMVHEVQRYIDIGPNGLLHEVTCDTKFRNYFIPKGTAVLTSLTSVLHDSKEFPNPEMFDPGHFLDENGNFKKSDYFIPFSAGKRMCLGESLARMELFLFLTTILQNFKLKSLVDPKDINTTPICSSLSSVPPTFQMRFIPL
Description: as §1, §2, §3

Row | SMILES | CYP1a2 (%) metabolic clearance rate of probe drug (CYP1a2) | CYP2d2 (%) metabolic clearance rate of probe drug (CYP2d2) | CYP3a1 (%) metabolic clearance rate of probe drug (CYP3a1) | CYP2c13(%) metabolic clearance rate of probe drug (CYP2c13) | CYP2d2 (%) metabolic clearance rate of probe drug (CYP2d2; RLM 0.5 mg/mL, 30 min 37°C, inhibitor added, probe metoprolol, blank control […] ± 2.12, n = 3) | CYP3a1 (%) metabolic clearance rate of probe drug (CYP3a1; RLM 0.5 mg/mL, 30 min 37°C, inhibitor added, probe testosterone, blank control 25.04 ± 1.93, n = 3)
1 | S=P(N1CC1)(N1CC1)N1CC1 [Thiotepa] | 35.91 ± 1.40% | 12.67 ± 0.65% | 25.72 ± 2.36% | 14.43 ± 0.36% |  | 
2 | O=c1cc(-c2ccccc2)oc2c1ccc1ccccc12 [α-naphthoflavone] | 28.92 ± 1.91 % |  |  | 16.65 ± 3.04% | 13.12 ± 0.82% | 25.69 ± 2.09%
